Residue numbers refer to the chain shown, from its start. Names may count otherwise.
How the values were obtained:
[1] = test system: Hepatitis C virus; experiment: Ratio of IC50 for HCV 1b with NS3-4A R155T mutation to IC50 for wild type HCV 1b; assay type: functional, Hepacivirus hominis, genotype 1b
[2] = test system: Hepatitis C virus; experiment: Ratio of IC50 for HCV 1b with NS3-4 R155K mutation to IC50 for wild type HCV 1b; assay type: functional, Hepacivirus hominis, genotype 1b
[3] = test system: Hepatitis C virus; experiment: (§1) Antiviral activity against HCV 1b with NS3-4A R155T mutation in human Huh7 cells after 48 hrs by replicon cell assay; assay type: functional, organism-based, Hepacivirus hominis; settings: genotype 1b, Huh-7, 48 h
[4] = test system: Hepatitis C virus; experiment: Antiviral activity against wild type HCV 1b Con1 in human Huh7 cells after 48 hrs by replicon cell assay; assay type: functional, organism-based, Hepacivirus hominis; settings: genotype 1b Con 1, Huh-7, 48 h
[5] = test system: Hepatitis C virus; experiment: Antiviral activity against HCV 1b with NS3-4A R155M mutation in human Huh7 cells after 48 hrs by replicon cell assay; assay type: functional, organism-based, Hepacivirus hominis; settings: genotype 1b, Huh-7, 48 h
[6] = test system: Hepatitis C virus; experiment: Ratio of IC50 for HCV 1b with NS3-4A R155G mutation to IC50 for wild type HCV 1b; assay type: functional, Hepacivirus hominis, genotype 1b
[7] = test system: Hepatitis C virus; experiment: Antiviral activity against HCV 1b Con1 with NS3-4A R155K mutation in human Huh7 cells after 48 hrs by replicon cell assay; assay type: functional, organism-based, Hepacivirus hominis; settings: genotype 1b Con 1, Huh-7, 48 h
[8] = target: NS3 protease (Hepacivirus C, UniProt C1KIQ2, R155S); experiment: Inhibition of HCV 1a NS3-4A protease R155S mutant after 60 mins; design: species or system Hepatitis C virus subtype 1a
[9] = test system: Hepatitis C virus; experiment: Antiviral activity against HCV 1b with NS3-4A R155G mutation in human Huh7 cells after 48 hrs by replicon cell assay; assay type: functional, organism-based, Hepacivirus hominis; settings: genotype 1b, Huh-7, 48 h
[10] = test system: Hepatitis C virus; experiment: Antiviral activity against HCV with NS3-4A R155T mutation in human Huh7.5 cells assessed as replication capacity by luciferase assay relative to wild type HCV; assay type: functional, Hepacivirus hominis, Huh-7
[11] = test system: Hepatitis C virus; experiment: Ratio of IC50 for HCV 1b with NS3-4A R155S mutation to IC50 for wild type HCV 1b; assay type: functional, Hepacivirus hominis, genotype 1b
[12] = test system: Hepatitis C virus; experiment: as §1; assay type: functional, organism-based, Hepacivirus hominis; settings: genotype 1b, Huh-7, 48 h; remark: listed apart in the source
[13] = test system: Hepatitis C virus; experiment: Antiviral activity against HCV with NS3-4A R155G mutation in human Huh7.5 cells assessed as replication capacity by luciferase assay relative to wild type HCV; assay type: functional, Hepacivirus hominis, Huh-7
[14] = Inhibition of wild type HCV 1a NS3-4A protease after 60 mins
[15] = test system: Hepatitis C virus; experiment: Antiviral activity against HCV with NS3-4A R155M mutation in human Huh7.5 cells assessed as replication capacity by luciferase assay relative to wild type HCV; assay type: functional, Hepacivirus hominis, Huh-7
[16] = test system: Hepatitis C virus; experiment: Antiviral activity against HCV 1b with NS3-4A R155I mutation in human Huh7 cells after 48 hrs by replicon cell assay; assay type: functional, organism-based, Hepacivirus hominis; settings: genotype 1b, Huh-7, 48 h
[17] = test system: Hepatitis C virus; experiment: Antiviral activity against wild type HCV in human Huh7.5 cells assessed as replication capacity by luciferase assay; assay type: functional, Hepacivirus hominis, Huh-7
[18] = test system: Hepatitis C virus; experiment: Ratio of IC50 for HCV 1b with NS3-4A R155M mutation to IC50 for wild type HCV 1b; assay type: functional, Hepacivirus hominis, genotype 1b
[19] = target: NS3 protease (Hepacivirus C, UniProt C1KIQ2, R155I); experiment: Inhibition of HCV 1a NS3-4A R155I mutant protease after 60 mins; design: species or system Hepatitis C virus subtype 1a
[20] = target: NS3 protease (Hepacivirus C, UniProt C1KIQ2, R155T); experiment: Inhibition of HCV 1a NS3-4A R155T mutant protease after 60 mins; design: species or system Hepatitis C virus subtype 1a
[21] = test system: Hepatitis C virus; experiment: Ratio of IC50 for HCV 1b with NS3-4A R155I mutation to IC50 for wild type HCV 1b; assay type: functional, Hepacivirus hominis, genotype 1b
[22] = test system: Hepatitis C virus; experiment: Antiviral activity against HCV with NS3-4A R155S mutation in human Huh7.5 cells assessed as replication capacity by luciferase assay relative to wild type HCV; assay type: functional, Hepacivirus hominis, Huh-7
[23] = target: NS3 protease (Hepacivirus C, UniProt C1KIQ2, R155K); experiment: Inhibition of HCV 1a NS3-4A R155K mutant protease after 60 mins; design: species or system Hepatitis C virus subtype 1a
[24] = test system: Hepatitis C virus; experiment: Antiviral activity against HCV with NS3-4A R155K mutation in human Huh7.5 cells after assessed as replication capacity by luciferase assay relative to wild type HCV; assay type: functional, Hepacivirus hominis, Huh-7
[25] = test system: Hepatitis C virus subtype 1a
Description: Activity of wild type HCV 1a NS3-4A protease

[26] = test system: Hepatitis C virus; experiment: Antiviral activity against HCV with NS3-4A R155I mutation in human Huh7.5 cells assessed as replication capacity by luciferase assay relative to wild type HCV; assay type: functional, Hepacivirus hominis, Huh-7
[27] = substrate: CCC[C@H](NC(=O)[C@@H]1[C@H]2CCC[C@H]2CN1C(=O)[C@@H](NC(=O)[C@@H](NC(=O)c1cnccn1)C1CCCCC1)C(C)(C)C)C(=O)C(=O)NC1CC1; settings: Hepatitis C virus subtype 1a
[28] = substrate: CCC[C@H](NC(=O)[C@@H]1[C@H]2CCC[C@H]2CN1C(=O)[C@@H](NC(=O)[C@@H](NC(=O)c1cnccn1)C1CCCCC1)C(C)(C)C)C(=O)C(=O)NC1CC1; settings: Hepatitis C virus subtype 1a; remark: listed apart in the source
[29] = substrate: CCC[C@H](NC(=O)[C@@H]1[C@H]2CCC[C@H]2CN1C(=O)[C@@H](NC(=O)[C@@H](NC(=O)c1cnccn1)C1CCCCC1)C(C)(C)C)C(=O)C(=O)NC1CC1; settings: Hepatitis C virus subtype 1a; remark: listed apart in the source

NS3 protease (Hepacivirus C, UniProt C1KIQ2, R155T), sequence (C1KIQ2 entry or part of it R155T): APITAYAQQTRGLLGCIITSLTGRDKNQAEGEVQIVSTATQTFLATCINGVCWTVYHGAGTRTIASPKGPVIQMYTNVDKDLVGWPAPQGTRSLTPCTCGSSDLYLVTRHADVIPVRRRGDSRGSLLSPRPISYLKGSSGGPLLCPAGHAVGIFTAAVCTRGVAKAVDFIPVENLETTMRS
NS3 protease (Hepacivirus C, UniProt C1KIQ2, R155S), sequence (C1KIQ2 entry or part of it R155S): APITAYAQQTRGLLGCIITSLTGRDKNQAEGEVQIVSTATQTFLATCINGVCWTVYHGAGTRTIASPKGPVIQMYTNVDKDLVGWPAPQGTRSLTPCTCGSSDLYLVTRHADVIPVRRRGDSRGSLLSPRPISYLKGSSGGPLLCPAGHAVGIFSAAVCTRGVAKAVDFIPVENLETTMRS
NS3 protease (Hepacivirus C, UniProt C1KIQ2, R155I), sequence (C1KIQ2 entry or part of it R155I): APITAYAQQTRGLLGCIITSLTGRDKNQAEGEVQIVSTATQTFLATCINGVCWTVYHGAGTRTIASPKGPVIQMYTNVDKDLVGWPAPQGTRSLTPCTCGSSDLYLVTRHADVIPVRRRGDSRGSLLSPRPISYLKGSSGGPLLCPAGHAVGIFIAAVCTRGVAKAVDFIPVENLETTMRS

NC(=O)c1ncn([C@@H]2O[C@H](CO)[C@@H](O)[C@H]2O)n1 [RIBAVIRIN]
fold change (FC) [1]: 0.6
fold change (FC) [2]: 0.6
IC50 [3]: 32 µM
IC50 [4]: 58 µM
IC50 [5]: 39 µM
fold change (FC) [6]: 0.7
IC50 [7]: 37 µM

CCC[C@H](NC(=O)[C@@H]1[C@H]2CCC[C@H]2CN1C(=O)[C@@H](NC(=O)[C@@H](NC(=O)c1cnccn1)C1CCCCC1)C(C)(C)C)C(=O)C(=O)NC1CC1 [TELAPREVIR]
fold change (FC) [1]: 19.8
fold change (FC) [2]: 7.4
IC50 [3]: 9.6 µM
IC50 [8]: 1.15 µM
IC50 [9]: 3.6 µM
IC50 [4]: 0.49 µM
IC50 [5]: 2.7 µM
Activity [10]: 41%
fold change (FC) [6]: 7.4
fold change (FC) [11]: 4.1
IC50 [12]: 2 µM
Activity [13]: 10%
IC50 [14]: 0.05 µM
Activity [15]: 18%
IC50 [16]: 11.7 µM
Activity [17]: 100%
fold change (FC) [18]: 5.5
IC50 [19]: 0.88 µM
IC50 [20]: 0.49 µM
fold change (FC) [21]: 24
Activity [22]: 45%
IC50 [23]: 0.51 µM
IC50 [7]: 3.6 µM
Activity [24]: 80%
Km [25]: 53 µM
Activity [26]: 19%

B1: NS3 protease (Hepacivirus C), C1KIQ2 R155K (protein)
chain: APITAYAQQTRGLLGCIITSLTGRDKNQAEGEVQIVSTATQTFLATCINGVCWTVYHGAGTRTIASPKGPVIQMYTNVDKDLVGWPAPQGTRSLTPCTCGSSDLYLVTRHADVIPVRRRGDSRGSLLSPRPISYLKGSSGGPLLCPAGHAVGIFKAAVCTRGVAKAVDFIPVENLETTMRS
Km [27]: 168 µM

B2: NS3 protease (Hepacivirus C), C1KIQ2 R155T (protein)
chain: B1 chain with K155T
Km [28]: 68 µM

B3: NS3 protease (Hepacivirus C), C1KIQ2 R155S (protein)
chain: B1 chain with K155S
Km [29]: 552 µM

From ChEMBL document CHEMBL1156474, “Phenotypic and structural analyses of hepatitis C virus NS3 protease Arg155 variants: sensitivity to telaprevir (VX-950) and interferon alpha” (J Biol Chem, 2007)
